This assay deals with MYT1 protein (Homo sapiens (Human), UniProt Q99640). Briefly: Test for binding to ATP binding site of MYT1 (Kinase Tracer 178 / Eu-Anti-GST antibody TR-FRET). To be noted: ATP binding site of MYT1, 30 minutes at room temperature. The method, then:
The binding capacity of each compound to the ATP binding site of MYT1 Kinase protein was evaluated. 5× Kinase Buffer A (manufactured by Thermo Fisher Scientific Inc., PV3189) was diluted to 5 times with Milli-Q water, thereby preparing 1× Kinase Buffer. Using 1× Kinase Buffer, MYT1 protein (manufactured by Carna Biosciences, Inc.) was diluted to a concentration of 0.005 μM and Eu-Anti-GST Antibody was diluted to a concentration of 1 μM. […] To a 96 well-plate, 2.5 μL of a compound diluted with DMSO was added. […] The mixture was well mixed and then allowed to stand at room temperature for 30 minutes. Thereafter, fluorescence wavelengths of 665 nm and 615 nm generated by irradiation with excitation light of 340 nm were detected using Envision (manufactured by PerkinElmer). The proportion of Tracer bound to MYT1 protein was calculated for every condition by dividing the intensity at the fluorescence wavelength of 665 nm by the intensity at the fluorescence wavelength of 615 nm.
On the technique in general: In TR-FRET formats the signal depends on donor and acceptor labels being close together.

Sequence of MYT1 protein (Q99640 whole entry): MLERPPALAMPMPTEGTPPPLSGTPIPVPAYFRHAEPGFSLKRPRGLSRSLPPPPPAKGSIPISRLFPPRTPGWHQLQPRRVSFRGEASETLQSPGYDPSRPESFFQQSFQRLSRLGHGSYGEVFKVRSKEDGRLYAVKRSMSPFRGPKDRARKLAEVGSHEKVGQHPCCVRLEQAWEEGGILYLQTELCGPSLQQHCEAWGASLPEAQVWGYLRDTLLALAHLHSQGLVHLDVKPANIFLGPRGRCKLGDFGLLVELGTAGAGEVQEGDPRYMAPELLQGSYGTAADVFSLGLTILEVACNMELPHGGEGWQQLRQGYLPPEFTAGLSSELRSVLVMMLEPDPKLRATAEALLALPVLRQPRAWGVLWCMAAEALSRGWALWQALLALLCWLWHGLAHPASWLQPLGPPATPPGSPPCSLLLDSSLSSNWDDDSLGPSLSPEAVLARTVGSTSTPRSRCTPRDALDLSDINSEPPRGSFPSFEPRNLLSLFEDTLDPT

Consider `Nc1c(-c2cc(F)c(F)c3[nH]ncc23)c2cc(Br)c3ncc(F)cc3c2[nH]c1=O` [Compound F4, 3-Amino-6-bromo-4-(6,7-difluoro-1H-indazol-4-yl)-9-fluoro-1H-1,7-phenanthrolin-2-one], for which the IC50 – broadly, the midpoint of a concentration-inhibition curve – turned out to be 22 nM.

`CC(C)N1CCC(c2cc3c(-c4ccc(F)c5[nH]ncc45)c(N)c(=O)[nH]c3c3ncccc23)CC1` [Compound D23, 3-Amino-4-(7-fluoro-1H-indazol-4-yl)-6-(1-propan-2-ylpiperidin-4-yl)-1H-1,10-phenanthrolin-2-one] had an IC50 of 6.4 nM. This IC50 is about 3.4-fold lower than that of the compound before.

`Nc1c(-c2ccnc3[nH]ncc23)c2cc(Br)c3ncccc3c2[nH]c1=O` [Compound C81, 3-Amino-6-bromo-4-(1H-pyrazolo[3,4-b]pyridin-4-yl)-1H-1,7-phenanthrolin-2-one] displayed a concentration for half-maximal inhibition (IC50) of 49 nM. Compared with the last compound, the IC50 is about 7.7-fold higher. The same measure for `Nc1c(-c2ccc(F)c3[nH]ncc23)c2cc(OC(F)(F)F)c3ncccc3c2[nH]c1=O` [Compound C188, 3-Amino-4-(7-fluoro-1H-indazol-4-yl)-6-(trifluoromethoxy)-1H-1,7-phenanthrolin-2-one]: 4.1 nM. For `Nc1cc(-c2c(N)c(=O)[nH]c3ccc(Cl)cc23)ccn1` [Compound A47, 3-Amino-4-(2-aminopyridin-4-yl)-6-chloro-1H-quinolin-2-one], the IC50 is 3300 nM. Compared with the last compound, the IC50 is about 800-fold higher. The compound `Cc1cc2c(nn1)c(Br)cc1c(-c3ccc(F)c4[nH]ncc34)c(N)c(=O)[nH]c12` [Compound S1, 3-Amino-6-bromo-4-(7-fluoro-1H-indazol-4-yl)-9-methyl-1H-pyrido[2,3-f]cinnolin-2-one] gave an IC50 of 370 nM. The same measure for `Nc1c(-c2c(F)ccc3[nH]ncc23)c2cc(C3CC3)c3ncccc3c2[nH]c1=O` (atropisomer, axis not shown) [Compound C158, (S)-3-amino-6-cyclopropyl-4-(5-fluoro-1H-indazol-4-yl)-1H-1,7-phenanthrolin-2-one]: 1.9 nM.

`CN1CCC(c2cc3c(-c4ccc(F)c5[nH]ncc45)c(N)c(=O)[nH]c3c3ncccc23)CC1` [Compound D22, 3-Amino-4-(7-fluoro-1H-indazol-4-yl)-6-(1-methylpiperidin-4-yl)-1H-1,10-phenanthrolin-2-one] displayed an IC50 of 2.9 nM. `Cc1cc2c(-c3ccc(F)c4[nH]ncc34)c(N)c(=O)[nH]c2c2scnc12` [Compound K2, 7-Amino-6-(7-fluoro-1H-indazol-4-yl)-4-methyl-9H-[1,3]thiazolo[4,5-h]quinolin-8-one] registered an IC50 of 1.2 nM.

In turn, `Nc1c(-c2ccc(F)c3[nH]ncc23)c2cc(OCC(F)F)c3ncccc3c2[nH]c1=O` [Compound C16, 3-Amino-6-(2,2-difluoroethoxy)-4-(7-fluoro-1H-indazol-4-yl)-1H-1,7-phenanthrolin-2-one] returned a concentration for half-maximal inhibition (IC50) of 1.1 nM. This IC50 and that of the compound before are within 1.5-fold of each other. The figure for `Cn1cc(-c2cc3c(-c4ccc(F)c5[nH]ncc45)c(N)c(=O)[nH]c3c3ccccc23)cn1` [Compound B29, 3-Amino-4-(7-fluoro-1H-indazol-4-yl)-6-(1-methylpyrazole-4-yl)-1H-benzo[h]quinolin-2-one] is 9.2 nM; for `Nc1c(-c2ccc(F)c3[nH]ncc23)c2cc(N3CCC(F)(F)CC3)c3ncccc3c2[nH]c1=O` [Compound C126, 3-Amino-6-(4,4-difluoropiperidin-1-yl)-4-(7-fluoro-1H-indazol-4-yl)-1H-1,7-phenanthrolin-2-one] it is 4.7 nM. The figure for `Nc1c(-c2cc(F)c(F)c3[nH]ncc23)c2cc(OC3CCC3)c3ncccc3c2[nH]c1=O` [Compound C206, 3-Amino-6-cyclobutyloxy-4-(6,7-difluoro-1H-indazol-4-yl)-1H-1,7-phenanthrolin-2-one] is 4.1 nM; for `Nc1c(-c2ccc(F)c3[nH]ncc23)c2cc(N3CCC3)c3ncccc3c2[nH]c1=O` [Compound C121, 3-Amino-6-(azetidin-1-yl)-4-(7-fluoro-1H-indazol-4-yl)-1H-1,7-phenanthrolin-2-one] it is 3 nM; for `Nc1c(-c2cccc3[nH]ncc23)c2ccccc2oc1=O` [Compound E1, 3-Amino-4-(1H-indazol-4-yl) chromen-2-one] it is 1100 nM.

With `Nc1c(-c2cccc3[nH]ncc23)c2cc(Cl)ccc2[nH]c1=O` [Compound A43, 3-Amino-6-chloro-4-(1H-indazol-4-yl)-1H-quinolin-2-one], the concentration for half-maximal inhibition (IC50) was 48 nM. Against the preceding compound, the IC50 is about 23-fold lower. The same measure for `Nc1c(-c2cc(F)c(F)c3[nH]ncc23)c2cc(O)c3ncccc3c2[nH]c1=O` [Compound C199, 3-Amino-4-(6,7-difluoro-1H-indazol-4-yl)-6-hydroxy-1H-1,7-phenanthrolin-2-one]: 3.8 nM; for `C=Cc1cc2c(-c3ccc(F)c4[nH]ncc34)c(N)c(=O)[nH]c2c2cccnc12` [Compound C89, 3-Amino-6-ethenyl-4-(7-fluoro-1H-indazol-4-yl)-1H-1,7-phenanthrolin-2-one]: 3.9 nM. For `Nc1c(-c2ccc(Cl)c3[nH]ncc23)c2cc(C3CCN(C4CCC4)CC3)ccc2[nH]c1=O` [Compound A35, 3-Amino-4-(7-chloro-1H-indazol-4-yl)-6-(1-cyclobutylpiperidin-4-yl)-1H-quinolin-2-one], the IC50 was 19 nM.

On to `CC(C)(C)C1CC(c2cc3c(-c4ccc(F)c5[nH]ncc45)c(N)c(=O)[nH]c3c3cccnc23)C1` (centres unmarked) [Compound C173, 3-Amino-6-(3-tert-butylcyclobutyl)-4-(7-fluoro-1H-indazol-4-yl)-1H-1,7-phenanthrolin-2-one], for which the IC50 is 95 nM. Compared with the last compound, the IC50 is about 5-fold higher. The same measure for `Cc1cc2c(-c3ccc(F)c4[nH]ncc34)c(N)c(=O)[nH]c2c2cc(F)cnc12` [Compound F3, 3-Amino-9-fluoro-4-(7-fluoro-1H-indazol-4-yl)-6-methyl-1H-1,7-phenanthrolin-2-one]: 4 nM; for `Nc1c(-c2ccc(F)c3[nH]ncc23)c2ccc3ccc(Cl)cc3c2[nH]c1=O` [Compound B11, 3-Amino-9-chloro-4-(7-fluoro-1H-indazol-4-yl)-1H-benzo[h]quinolin-2-one]: 30 nM. The same measure for `Nc1c(-c2ccc(F)c3[nH]ncc23)c2cc(O[C@@H]3CCOC3)c3ncccc3c2[nH]c1=O` [Compound C5, 3-Amino-4-(7-fluoro-1H-indazol-4-yl)-6-[(3R)-oxolan-3-yl]oxy-1H-1,7-phenanthrolin-2-one]: 1.4 nM. The figure for `Cc1cc2c(-c3nccc4[nH]ncc34)c(N)c(=O)[nH]c2c2cccnc12` [Compound C223, 3-Amino-6-methyl-4-(1H-pyrazolo[4,3-c]pyridin-4-yl)-1H-1,7-phenanthrolin-2-one] is 750 nM; for `Cc1cc2c(-c3ccc(F)c4[nH]ncc34)c(N)c(=O)[nH]c2c2cccc(Cl)c12` [Compound B19, 3-Amino-7-chloro-4-(7-fluoro-1H-indazol-4-yl)-6-methyl-1H-benzo[h]quinolin-2-one] it is 22 nM. As for `CC(C)c1cc(Cl)cc2c(-c3ccc(Cl)c4[nH]ncc34)c(N)c(=O)[nH]c12` [Compound A19, 3-Amino-6-chloro-4-(7-chloro-1H-indazol-4-yl)-8-propan-2-yl-1H-quinolin-2-one], the IC50 was found to be 600 nM.

For the compound `Nc1c(-c2cccc(O)c2)c2cc(Cl)c3ccccc3c2[nH]c1=O` [Compound B8, 3-Amino-6-chloro-4-(3-hydroxyphenyl)-1H-benzo[h]quinolin-2-one], the half-maximal inhibitory concentration (IC50) was 12 nM. For the compound `Nc1c(-c2cc(F)c(F)c3[nH]ncc23)c2cc(OCC(F)F)c3ncccc3c2[nH]c1=O` [Compound C68, 3-Amino-6-(2,2-difluoroethoxy)-4-(6,7-difluoro-1H-indazol-4-yl)-1H-1,7-phenanthrolin-2-one], the 50% inhibitory concentration (IC50) amounted to 1.4 nM. Compound `Nc1c(N2CCCC(CO)C2)c2cc(Br)ccc2[nH]c1=O` (centres unmarked) [Compound A71, 3-Amino-6-bromo-4-[3-(hydroxymethyl)piperidin-1-yl]-1H-quinolin-2-one 2,2,2-trifluoroacetate] displayed a concentration for half-maximal inhibition (IC50) of 1400 nM. The figure for `CO[C@H]1C[C@@H](Oc2cc3c(-c4ccc(F)c5[nH]ncc45)c(N)c(=O)[nH]c3c3cccnc23)C1` [Compound C29, 3-Amino-4-(7-fluoro-1H-indazol-4-yl)-6-((1s,3s)-3-methoxycyclobutoxy)-1,7-phenanthrolin-2(1H)-one] is 3.3 nM; for `Nc1c(-c2ccc(F)c3[nH]ncc23)c2cc(Br)c3ncsc3c2[nH]c1=O` [Compound K1, 7-Amino-4-bromo-6-(7-fluoro-1H-indazol-4-yl)-9H-[1,3]thiazolo[4,5-h]quinolin-8-one] it is 1.7 nM; for `CC1(c2cc3c(-c4ccc(F)c5[nH]ncc45)c(N)c(=O)[nH]c3c3cccnc23)CC1` [Compound C142, 3-Amino-4-(7-fluoro-1H-indazol-4-yl)-6-(1-methylcyclopropyl)-1H-1,7-phenanthrolin-2-one] it is 18 nM. As to `Nc1c(-c2cc(F)c(F)c3[nH]ncc23)c2cc(OC(F)(F)F)c3ncccc3c2[nH]c1=O` [Compound C72, 3-Amino-4-(6,7-difluoro-1H-indazol-4-yl)-6-(trifluoromethoxy)-1H-1,7-phenanthrolin-2-one], the IC50 was found to be 6.2 nM. The compound `CN1CCN(c2cc3c(-c4ccc(F)c5[nH]ncc45)c(N)c(=O)[nH]c3c3cccnc23)CC1` [Compound C114, 3-Amino-4-(7-fluoro-1H-indazol-4-yl)-6-(4-methylpiperazin-1-yl)-1H-1,7-phenanthrolin-2-one] displayed a half-maximal inhibitory concentration (IC50) of 2 nM. Compared with the last compound, the IC50 is about 3.1-fold lower. The same measure for `Nc1c(-c2ccc(F)c3[nH]ncc23)c2cc(CCC(F)(F)F)c3ncccc3c2[nH]c1=O` [Compound C161, 3-Amino-4-(7-fluoro-1H-indazol-4-yl)-6-(3,3,3-trifluoropropyl)-1H-1,7-phenanthrolin-2-one]: 8.6 nM.

The values are drawn from patent publication US20260062412A1, “NITROGEN-CONTAINING HETEROCYCLIC COMPOUND HAVING MYT1 INHIBITORY ACTIVITY” (CHUGAI SEIYAKU KABUSHIKI KAISHA, priority 2023, published 2026).
